Results from patent US20190328783A1, “A METHOD OF ENGINEERING PRODRUG-SPECIFIC HYPERSENSITIVE T-CELLS FOR IMMUNOTHERAPY BY GENE EXPRESSION” (CELLECTIS, priority 2016, published 2019).
Entries after “also recorded” stand apart in the source; their conditions may differ.

What was measured:
[1] = system: dCK KO T cells expressing CDA-BFP; experiment: Viability by flow cytometry of dCK KO T cells transfected with CDA-BFP mRNA, in presence of prodrug; assay type: cell-based, human; conditions: increasing concentration (0 to 10 mM) for 48H; FIG. 2
Protocol: FIG. 2: Analysis by FACS for BFP expression in T cells render hypersensitive to the prodrugs 5fdC and 5HmdC by combining CDA expression and inactivation of dCK gene by KO. mRNA encoding a chimeric construction consisting of CDA fused to a BFP reporter, and a KO inactivation of dCK is made by using TALE-nuclease as explained later. […]
To further investigate the ability of T cells to be sensitive to 5fdC, IC50 for this prodrug was determined on dCK KO and WT T cells. […] At the end of 5fdC incubation, viability of T cells was determined by FACS analysis.
FIG. 2 presents the results to show whether primary T cells having undergone dCK KO can still endow resistance to purine nucleotide analogues as well as with hypersensitivity toward 5hmDC and SFDC. One day post transfection, dCK KO T cells were recovered and analyzed by flow cytometry for BFP expression. […] As described earlier, transfected cells were incubated in the presence of increasing concentration of 5hmdC or 5FdC for 48H and at the end of incubation, cell viability was determined by flow cytometry.

[2] = system: primary T cells transfected with CDA-BFP mRNA; experiment: Viability by flow cytometry of primary T cells transfected with CDA-BFP mRNA, in presence of prodrug; assay type: cell-based, human; conditions: increasing concentration (0 to 10 mM) for 48H; FIG. 1
Source text: FIG. 1: Analysis by FACS for BFP expression in T cells render hypersensitive to the prodrugs 5fdC and 5HmdC after CDA expression. mRNA encoding a chimeric construction consisting of CDA fused to a BFP reporter. A) Viability rate expressed in percentage: comparison between mock (T cells not transfected by the CDA expression plasmid)—represented in the graph by unfilled bar- and transfected T cells by the CDA expression plasmid—represented in the graph by filled bar-, when all cells are submitted to an increasing dose of the 5fdC prodrug (from 0 to 10 mM); B) The same than for A) excepted that the cells are submitted to an increasing dose of the 5HmdC prodrug (from 0 to 10 mM). […]
To test the ability of CDA expression to endow primary T cell with hypersensitivity to hypomethylated agents 5hmdC and 5FdC, primary T cells were transfected with 40 μg of mRNA encoding a chimeric construction consisting of CDA fused to a BFP reported via a 2A self-cleaving peptide (SEQ ID NO. 9). One day post transfection, cells were recovered and analyzed by flow cytometry for BFP expression.
Transfected cells were incubated in the presence of increasing concentration of 5hmdC or 5FdC for 48H. At the end of incubation, cell viability was determined by flow cytometry. […]

SMILES | prodrug hypersensitivity (cell viability) of dCK KO T cells transfected with CDA-BFP [1] | sensitivity (cell viability) of CDA-transfected T cells with respect to wild type cells [2]
Nc1nc(=O)n([C@H]2C[C@H](O)[C@@H](CO)O2)cc1C=O [5FdC, 5-formyl-2′-deoxycytidine] | increase of specific prodrug hypersensitivity; also recorded: hypersensitive | increase of sensitivity
Nc1nc(=O)n([C@H]2C[C@H](O)[C@@H](CO)O2)cc1CO [5hmdC, 5-hydroxymethyl-2′-deoxycytidine] | increase of specific prodrug hypersensitivity; also recorded: hypersensitive | increase of sensitivity
